Experimental data from US20260274892A1, “MACROCYCLIC BROAD SPECTRUM ANTIBIOTICS” (RQx Pharmaceuticals, Inc., priority 2017, published 2026).

The compounds below were run on Escherichia coli ATCC 25922 (assay: Minimum inhibitory concentration (MIC), CLSI broth micro-dilution, E. coli). Settings: Escherichia coli, ATCC25922, 22 h, Table 7, cation adjusted Mueller Hinton Broth + 0.002% Tween-80, 35° C.
Type: cell-based
In short: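 Antibacterial potency is measured as MIC by the CLSI broth dilution method. Bacteria at OD600 0.0005 in Tween-80-supplemented cation-adjusted Mueller Hinton broth face ten twofold compound dilutions for 22 h at 35° C.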

Row | SMILES | MIC [µM]
1 | Cc1nc(-c2ccc(C(C)(C)C)cc2)nc(C)c1C(=O)N[C@@H](CCN)C(=O)N(C)[C@@H]1C(=O)N[C@@H](C)C(=O)N[C@H](C(=O)NCC#N)Cc2ccc(O)c(c2)-c2cc1ccc2OCC(CN)CN (racemic) [Compound 611, rac-(8S,11S,14S)-18-[3-amino-2-(aminomethyl)propoxy]-N-(cyanomethyl)-3-hydroxy-11-methyl-14-[methyl-[rac-(2S)-4-amino-2-[[2-(4-tert-butylphenyl)-4,6-dimethyl-pyrimidine-5-carbonyl]amino]butanoyl]amino]-10,13-dioxo-9,12-diazatricyclo[13.3.1.12,6]icosa-1(18),2(20),3,5,15(19),16-hexaene-8-carboxamide] | 0.19
2 | Cc1nc(-c2ccc(C(C)(C)C)cc2)nc(C)c1C(=O)N[C@@H](CCN)C(=O)N(C)[C@@H]1C(=O)N[C@@H](C)C(=O)N[C@H](C(=O)NCC#N)Cc2ccc(OC[C@H](N)CO)c(c2)-c2cc1ccc2O (racemic) [Compound 612, rac-(8S,11S,14S)-N-(cyanomethyl)-18-hydroxy-11-methyl-14-[methyl-[rac-(2S)-4-amino-2-[[2-(4-tert-butylphenyl)-4,6-dimethyl-pyrimidine-5-carbonyl]amino]butanoyl]amino]-10,13-dioxo-3-[rac-(2R)-2-amino-3-hydroxy-propoxy]-9,12-diazatricyclo[13.3.1.12,6]icosa-1(18),2(20),3,5,15(19),16-hexaene-8-carboxamide] | 0.25
3 | Cc1nc(-c2ccc(C(C)(C)C)cc2)nc(C)c1C(=O)N[C@@H](CCN)C(=O)N(C)[C@@H]1C(=O)N[C@@H](C)C(=O)N[C@H](C(=O)NCC#N)Cc2ccc(OC[C@@H](N)CO)c(c2)-c2cc1ccc2O (racemic) [Compound 613, rac-(8S,11S,14S)-N-(cyanomethyl)-18-hydroxy-11-methyl-14-[methyl-[rac-(2S)-4-amino-2-[[2-(4-tert-butylphenyl)-4,6-dimethyl-pyrimidine-5-carbonyl]amino]butanoyl]amino]-10,13-dioxo-3-[rac-(2S)-2-amino-3-hydroxy-propoxy]-9,12-diazatricyclo[13.3.1.12,6]icosa-1(18),2(20),3,5,15(19),16-hexaene-8-carboxamide] | 0.75
4 | Cc1nc(-c2ccc(OC3CCCCC3)cc2)nc(C)c1C(=O)N[C@@H](CCNS(N)(=O)=O)C(=O)N(C)[C@@H]1C(=O)N[C@@H](C)C(=O)N[C@H](C(=O)NCC#N)Cc2ccc(O)c(c2)-c2cc1ccc2OCCN (racemic) [Compound 615, rac-(8S,11S,14S)-18-(2-aminoethoxy)-N-(cyanomethyl)-3-hydroxy-11-methyl-14-[methyl-[rac-(2S)-2-[[2-[4-(cyclohexoxy)phenyl]-4,6-dimethyl-pyrimidine-5-carbonyl]amino]-4-(sulfamoylamino)butanoyl]amino]-10,13-dioxo-9,12-diazatricyclo[13.3.1.12,6]icosa-1(18),2(20),3,5,15(19),16-hexaene-8-carboxamide] | 1
5 | Cc1nc(-c2ccc(OC3CCCCC3)cc2)nc(C)c1C(=O)N[C@@H](CNS(N)(=O)=O)C(=O)N(C)[C@@H]1C(=O)N[C@@H](C)C(=O)N[C@H](C(=O)NCC#N)Cc2ccc(OCCN)c(c2)-c2cc1ccc2O (racemic) [Compound 616, rac-(8S,11S,14S)-3-(2-aminoethoxy)-N-(cyanomethyl)-18-hydroxy-11-methyl-14-[methyl-[rac-(2S)-2-[[2-[4-(cyclohexoxy)phenyl]-4,6-dimethyl-pyrimidine-5-carbonyl]amino]-3-(sulfamoylamino)propanoyl]amino]-10,13-dioxo-9,12-diazatricyclo[13.3.1.12,6]icosa-1(18),2(20),3,5,15(19),16-hexaene-8-carboxamide] | 0.5
6 | Cc1nc(-c2ccc(C(C)(C)C)cc2)nc(C)c1C(=O)N[C@@H](CCN)C(=O)N(C)[C@@H]1C(=O)N[C@@H](C)C(=O)N[C@H](C(=O)NCC#N)Cc2ccc(O)c(c2)-c2cc1ccc2OC[C@H](O)CN (racemic) [Compound 617, rac-(8S,11S,14S)-N-(cyanomethyl)-3-hydroxy-11-methyl-14-[methyl-[rac-(2S)-4-amino-2-[[2-(4-tert-butylphenyl)-4,6-dimethyl-pyrimidine-5-carbonyl]amino]butanoyl]amino]-10,13-dioxo-18-[rac-(2R)-3-amino-2-hydroxy-propoxy]-9,12-diazatricyclo[13.3.1.12,6]icosa-1(18),2(20),3,5,15(19),16-hexaene-8-carboxamide] | 0.19
7 | Cc1nc(-c2ccc(C(C)(C)C)cc2)nc(C)c1C(=O)N[C@@H](CCN)C(=O)N(C)[C@@H]1C(=O)N[C@@H](C)C(=O)N[C@H](C(=O)NCC#N)Cc2ccc(OCCN)c(c2)-c2cc1cc(NC(N)=O)c2O (racemic) [Compound 621, rac-(8S,11S,14S)-3-(2-aminoethoxy)-N-(cyanomethyl)-18-hydroxy-11-methyl-14-[methyl-[rac-(2S)-4-amino-2-[[2-(4-tert-butylphenyl)-4,6-dimethyl-pyrimidine-5-carbonyl]amino]butanoyl]amino]-10,13-dioxo-17-ureido-9,12-diazatricyclo[13.3.1.12,6]icosa-1(18),2(20),3,5,15(19),16-hexaene-8-carboxamide] | 0.25
8 | Cc1nc(-c2ccc(C(C)(C)C)cc2)nc(C)c1C(=O)N[C@@H](CCN)C(=O)N(C)[C@@H]1C(=O)N[C@@H](C)C(=O)N[C@H](C(=O)NCC#N)Cc2ccc(N)c(c2)-c2cc1ccc2OCCN (racemic) [Compound 624, rac-(8S,11S,14S)-3-amino-18-(2-aminoethoxy)-N-(cyanomethyl)-11-methyl-14-[methyl-[rac-(2S)-4-amino-2-[[2-(4-tert-butylphenyl)-4,6-dimethyl-pyrimidine-5-carbonyl]amino]butanoyl]amino]-10,13-dioxo-9,12-diazatricyclo[13.3.1.12,6]icosa-1(18),2(20),3,5,15(19),16-hexaene-8-carboxamide] | 0.38

Same assay, conditions: Escherichia coli, ATCC25922, Table 7, cation adjusted Mueller Hinton Broth + 0.002% Tween-80, 35° C., 22 hours

Row | SMILES | MIC [µM]
9 | Cc1nc(-c2ccc(C(C)(C)C)cc2)nc(C)c1C(=O)N[C@@H](CCN)C(=O)N(C)[C@@H]1C(=O)N[C@@H](C)C(=O)N[C@H](C(=O)NCC#N)Cc2ccc(OC[C@H](O)CN)c(c2)-c2cc1ccc2O (racemic) [Compound 614, rac-(8S,11S,14S)-N-(cyanomethyl)-18-hydroxy-11-methyl-14-[methyl-[rac-(2S)-4-amino-2-[[2-(4-tert-butylphenyl)-4,6-dimethyl-pyrimidine-5-carbonyl]amino]butanoyl]amino]-10,13-dioxo-3-[rac-(2R)-3-amino-2-hydroxy-propoxy]-9,12-diazatricyclo[13.3.1.12,6]icosa-1(18),2(20),3,5,15(19),16-hexaene-8-carboxamide] | 0.19
10 | Cc1nc(-c2ccc(C(C)(C)C)cc2)nc(C)c1C(=O)N[C@@H](CCN)C(=O)N(C)[C@@H]1C(=O)N[C@@H](C)C(=O)N[C@H](C(=O)NCC#N)Cc2cc(NC(N)=O)c(O)c(c2)-c2cc1ccc2OCCN (racemic) [Compound 618, rac-(8S,11S,14S)-18-(2-aminoethoxy)-N-(cyanomethyl)-3-hydroxy-11-methyl-14-[methyl-[rac-(2S)-4-amino-2-[[2-(4-tert-butylphenyl)-4,6-dimethyl-pyrimidine-5-carbonyl]amino]butanoyl]amino]-10,13-dioxo-4-ureido-9,12-diazatricyclo[13.3.1.12,6]icosa-1(18),2(20),3,5,15(19),16-hexaene-8-carboxamide] | 0.19
11 | Cc1nc(-c2ccc(C(C)(C)C)cc2)nc(C)c1C(=O)N[C@@H](CCN)C(=O)N(C)[C@@H]1C(=O)N[C@@H](C)C(=O)N[C@H](C(=O)NCC#N)Cc2cc(NC(N)=O)c(OCCN)c(c2)-c2cc1ccc2OCCN (racemic) [Compound 619, rac-(8S,11S,14S)-3,18-bis(2-aminoethoxy)-N-(cyanomethyl)-11-methyl-14-[methyl-[rac-(2S)-4-amino-2-[[2-(4-tert-butylphenyl)-4,6-dimethyl-pyrimidine-5-carbonyl]amino]butanoyl]amino]-10,13-dioxo-4-ureido-9,12-diazatricyclo[13.3.1.12,6]icosa-1(18),2(20),3,5,15(19),16-hexaene-8-carboxamide] | 0.13
12 | CC(=O)Nc1cc2cc(c1O)-c1cc(ccc1OCCN)C[C@@H](C(=O)NCC#N)NC(=O)[C@H](C)NC(=O)[C@H]2N(C)C(=O)[C@H](CCN)NC(=O)c1c(C)nc(-c2ccc(C(C)(C)C)cc2)nc1C (racemic) [Compound 620, rac-(8S,11S,14S)-17-acetamido-3-(2-aminoethoxy)-N-(cyanomethyl)-18-hydroxy-11-methyl-14-[methyl-[rac-(2S)-4-amino-2-[[2-(4-tert-butylphenyl)-4,6-dimethyl-pyrimidine-5-carbonyl]amino]butanoyl]amino]-10,13-dioxo-9,12-diazatricyclo[13.3.1.12,6]icosa-1(18),2(20),3,5,15(19),16-hexaene-8-carboxamide] | 0.5
13 | Cc1nc(-c2ccc(C(C)(C)C)cc2)nc(C)c1C(=O)N[C@@H](CCN)C(=O)N(C)[C@@H]1C(=O)N[C@@H](C)C(=O)N[C@H](C(=O)NCC#N)Cc2ccc(OCCN)c(c2)-c2cc1cc(NC(N)=O)c2OCCN (racemic) [Compound 622, rac-(8S,11S,14S)-3,18-bis(2-aminoethoxy)-N-(cyanomethyl)-11-methyl-14-[methyl-[rac-(2S)-4-amino-2-[[2-(4-tert-butylphenyl)-4,6-dimethyl-pyrimidine-5-carbonyl]amino]butanoyl]amino]-10,13-dioxo-17-ureido-9,12-diazatricyclo[13.3.1.12,6]icosa-1(18),2(20),3,5,15(19),16-hexaene-8-carboxamide] | 0.5
